In ChEMBL document CHEMBL1201862, “PubChem BioAssay data set” (2004):
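A five-concentration, 48-hour dose response in 96-well plates underlies each endpoint, interpolated linearly between surrounding concentrations. Abbreviation: GI50, concentration required for 50% inhibition of growth.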 Active and inactive are the calls of the source. Rule as the data show it: active = GI50 up to about 1.1 µM and inactive = higher.

Tests used:
Assay in all cases: NCI-60 cell line screen, 48 h
SF-295 = tested on: SF-295
SW-620 = tested on: SW-620
RXF 393 = tested on: RXF 393
RPMI-8226 = tested on: RPMI-8226
SK-MEL-5 = tested on: SK-MEL-5
SNB-75 = tested on: SNB-75
OVCAR-8 = tested on: OVCAR-8
EKVX = tested on: EKVX
MCF7 = tested on: MCF7
MDA-MB-435 = tested on: MDA-MB-435
A549 = tested on: A549
NCI-H226 = tested on: NCI-H226
M14 = tested on: M14
786-0 = tested on: 786-0
OVCAR-3 = tested on: OVCAR-3
MOLT-4 = tested on: MOLT-4
SF-539 = tested on: SF-539
BT-549 = tested on: BT-549
SR = tested on: SR
KM12 = tested on: KM12
CAKI-1 = tested on: CAKI-1
OVCAR-5 = tested on: OVCAR-5
SNB-19 = tested on: SNB-19
HCT-116 = tested on: HCT-116
PC-3 = tested on: PC-3
HOP-92 = tested on: HOP-92
UACC-257 = tested on: UACC-257
LOX IMVI = tested on: LOX IMVI
MDA-MB-231 = tested on: MDA-MB-231
NCI-H522 = tested on: NCI-H522
TK-10 = tested on: TK-10
OVCAR-4 = tested on: OVCAR-4
T47D = tested on: T47D
Hs-578T = tested on: Hs-578T
SK-OV-3 = tested on: SK-OV-3
HCC 2998 = tested on: HCC 2998
U-251 = tested on: U-251
SN12C = tested on: SN12C
UACC-62 = tested on: UACC-62
IGROV-1 = tested on: IGROV-1
HL-60 = tested on: HL-60
K562 = tested on: K562
HOP-62 = tested on: HOP-62
SK-MEL-28 = tested on: SK-MEL-28
CCRF-CEM = tested on: CCRF-CEM
HT-29 = tested on: HT-29
MDA-N = tested on: MDA-N
ACHN = tested on: ACHN
NCI-H460 = tested on: NCI-H460
SF-268 = tested on: SF-268
NCI-H23 = tested on: NCI-H23
Malme-3M = tested on: Malme-3M
NCI/ADR-RES = tested on: NCI/ADR-RES
A498 = tested on: A498
SK-MEL-2 = tested on: SK-MEL-2
HCT-15 = tested on: HCT-15
COLO 205 = tested on: COLO 205
DU-145 = tested on: DU-145

`COC(=O)C(=O)C(C(=O)C(N)=O)c1nc2ccc(C(=O)c3ccccc3)cc2nc1O` (stereo not drawn) was tested, and the GI50 (SF-295) was 79.8 µM (inactive), the GI50 (SW-620) was > 100 µM (inactive) and the GI50 (RXF 393) was 69.7 µM (inactive). For the same compound, the GI50 (RPMI-8226) was 62.5 µM (inactive), the GI50 (SK-MEL-5) was 45.7 µM (inactive) and the GI50 (SNB-75) was 69 µM (inactive). The GI50 (OVCAR-8) was 53.8 µM (inactive), the GI50 (EKVX) was > 100 µM (inactive) and the GI50 (MCF7) was 63.8 µM (inactive). For the same compound, the GI50 (MDA-MB-435) was 65 µM (inactive), the GI50 (A549) was > 100 µM (inactive) and the GI50 (NCI-H226) was > 100 µM (inactive). The GI50 (M14) was > 100 µM (inactive), the GI50 (786-0) was > 100 µM (inactive) and the GI50 (OVCAR-3) was > 100 µM (inactive). For the same compound, the GI50 (MOLT-4) was 54.3 µM (inactive), the GI50 (SF-539) was 87.1 µM (inactive) and the GI50 (BT-549) was > 100 µM (inactive). The GI50 (SR) was 27.7 µM (inactive), the GI50 (KM12) was 46.9 µM (inactive) and the GI50 (CAKI-1) was 56 µM (inactive). For the same compound, the GI50 (OVCAR-5) was > 100 µM (inactive), the GI50 (SNB-19) was > 10 µM (inactive) and the GI50 (HCT-116) was > 100 µM (inactive). The GI50 (PC-3) was 75.2 µM (inactive), the GI50 (HOP-92) was > 100 µM (inactive) and the GI50 (UACC-257) was > 100 µM (inactive). For the same compound, the GI50 (LOX IMVI) was > 100 µM (inactive), the GI50 (MDA-MB-231) was > 100 µM (inactive) and the GI50 (NCI-H522) was 40.7 µM (inactive). For the same compound, the GI50 (TK-10) was > 100 µM (inactive), the GI50 (OVCAR-4) was 28.6 µM (inactive) and the GI50 (T47D) was 70.5 µM (inactive). For the same compound, the GI50 (Hs-578T) was 80.5 µM (inactive), the GI50 (SK-OV-3) was > 100 µM (inactive) and the GI50 (HCC 2998) was > 100 µM (inactive). For the same compound, the GI50 (U-251) was > 100 µM (inactive), the GI50 (SN12C) was > 100 µM (inactive) and the GI50 (UACC-62) was > 100 µM (inactive). For the same compound, the GI50 (IGROV-1) was 83.2 µM (inactive), the GI50 (HL-60) was 84.7 µM (inactive) and the GI50 (K562) was 34.2 µM (inactive). For the same compound, the GI50 (HOP-62) was > 100 µM (inactive), the GI50 (SK-MEL-28) was > 100 µM (inactive) and the GI50 (CCRF-CEM) was > 100 µM (inactive). The GI50 (HT-29) was > 100 µM (inactive), the GI50 (MDA-N) was > 100 µM (inactive) and the GI50 (ACHN) was 63 µM (inactive). For the same compound, the GI50 (NCI-H460) was 74.5 µM (inactive), the GI50 (SF-268) was > 100 µM (inactive) and the GI50 (NCI-H23) was > 10 µM (inactive). The GI50 (Malme-3M) was > 100 µM (inactive), the GI50 (NCI/ADR-RES) was 40.4 µM (inactive) and the GI50 (A498) was > 100 µM (inactive). The GI50 (SK-MEL-2) was > 100 µM (inactive) and the GI50 (HCT-15) was 55.7 µM.
With `N#CC(C#N)=c1c(=O)c2c3ccccc3cc3cccc1c32` the GI50 (SW-620) was > 100 µM (inactive), the GI50 (RPMI-8226) was > 100 µM (inactive) and the GI50 (SK-MEL-5) was > 100 µM (inactive). For the same compound, the GI50 (SNB-75) was > 100 µM (inactive), the GI50 (MDA-MB-435) was > 100 µM (inactive) and the GI50 (A549) was > 100 µM (inactive). The GI50 (NCI-H226) was > 100 µM (inactive), the GI50 (M14) was > 100 µM (inactive) and the GI50 (786-0) was 35.2 µM (inactive). For the same compound, the GI50 (OVCAR-3) was > 100 µM (inactive), the GI50 (COLO 205) was > 100 µM (inactive) and the GI50 (MOLT-4) was 70.3 µM (inactive). The GI50 (BT-549) was > 100 µM (inactive), the GI50 (KM12) was 58.7 µM (inactive) and the GI50 (CAKI-1) was > 100 µM (inactive). The GI50 (OVCAR-5) was > 100 µM (inactive), the GI50 (SNB-19) was > 100 µM (inactive) and the GI50 (HCT-116) was 72.6 µM (inactive). The GI50 (DU-145) was > 100 µM (inactive), the GI50 (PC-3) was 55.7 µM (inactive) and the GI50 (HOP-92) was > 100 µM (inactive). For the same compound, the GI50 (UACC-257) was > 100 µM (inactive), the GI50 (LOX IMVI) was > 100 µM (inactive) and the GI50 (MDA-MB-231) was > 100 µM (inactive). The GI50 (OVCAR-4) was > 100 µM (inactive), the GI50 (T47D) was > 100 µM (inactive) and the GI50 (Hs-578T) was 31.5 µM (inactive). For the same compound, the GI50 (SK-OV-3) was > 100 µM (inactive), the GI50 (HCC 2998) was > 100 µM (inactive) and the GI50 (U-251) was > 100 µM (inactive). The GI50 (SN12C) was > 100 µM (inactive), the GI50 (UACC-62) was > 100 µM (inactive) and the GI50 (IGROV-1) was 40.6 µM (inactive). The GI50 (HL-60) was 68.1 µM (inactive), the GI50 (HOP-62) was 29 µM (inactive) and the GI50 (SK-MEL-28) was 89.9 µM (inactive). The GI50 (CCRF-CEM) was > 100 µM (inactive), the GI50 (HT-29) was > 100 µM (inactive) and the GI50 (MDA-N) was > 100 µM (inactive). For the same compound, the GI50 (ACHN) was 37.1 µM (inactive), the GI50 (NCI-H460) was > 100 µM (inactive) and the GI50 (SF-268) was > 100 µM (inactive). For the same compound, the GI50 (NCI-H23) was > 100 µM (inactive), the GI50 (NCI/ADR-RES) was > 100 µM (inactive) and the GI50 (A498) was > 100 µM (inactive). The GI50 (SK-MEL-2) was 92.3 µM (inactive) and the GI50 (HCT-15) was > 100 µM.
